Test results as given in PubChem BioAssay (NCI).
Where “and” joins values, the source holds several entries; their conditions need not be identical. Equal entries are not always repeated.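 Assay format: 96-well plates, 48-hour exposure. GI50 is the concentration that inhibits growth by half. TGI: total growth inhibition.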

Experiments:
Test in all cases: growth of human tumour cells (NCI), 48 h
[1] = system: 786-0 renal
[2] = system: A549 NSCLC
[3] = system: ACHN renal
[4] = system: COLO 205 colon
[5] = system: KM12 colon
[6] = system: MOLT-4 leukemia
[7] = system: NCI-H460 lung
[8] = system: OVCAR-5 ovarian
[9] = system: SK-MEL-2 melanoma
[10] = system: NCI/ADR-RES ovarian

| SMILES | TGI [1] | TGI [2] | TGI [3] | GI50 [4] [µM] | TGI [4] [µM] | TGI [5] | GI50 [6] [µM] | TGI [6] | GI50 [7] [µM] | TGI [7] | GI50 [8] | TGI [8] [µM] | GI50 [9] | TGI [9] | GI50 [1] | GI50 [3] | GI50 [2] | GI50 [10] | TGI [10] | GI50 [5] [µM] |
| --- | --- | --- | --- | --- | --- | --- | --- | --- | --- | --- | --- | --- | --- | --- | --- | --- | --- | --- | --- | --- |
| O=C1[C@@H]2C(c3ccc(Br)cc3)=NO[C@@H]2C(=O)N1c1ccc(Cc2ccc(N3C(=O)[C@H]4C(c5ccc(Br)cc5)=NO[C@H]4C3=O)cc2)cc1 | > 3.48 µM | > 3.48 µM | > 40 µM | > 40 | > 40 | > 3.48 µM | > 40 | > 40 µM | > 40 | > 40 µM | > 40000 nM | > 40 | > 40 µM | > 40 µM | – | – | – | – | – | – |
| CN=c1ss/c(=N\C(=S)N(C)C)n1C | > 100 µM | > 100 µM | > 100 µM | – | – | > 100 µM | – | > 100 µM | – | > 100 µM | – | > 100 | – | > 100 µM | – | – | – | – | – | – |
| COc1cc(C2c3cc4c(cc3[C@@H](NCCN(C)C)C3COC(=O)[C@H]23)OCO4)cc(OC)c1O (some centres undefined) | 0.457 µM and 1.1 µM | – | 0.045 µM and 0.192 µM | – | – | 2.22 µM and 2.63 µM | – | – | – | 0.135 µM and 0.326 µM | – | – | 0.397 µM and 1.22 µM | 1.45 µM and 3.19 µM | 0.0355 µM and 0.132 µM | < 10 nM and 26.9 nM | – | – | – | – |
| C[C@H]1CC[P+](Cc2ccccc2)(c2ccccc2)C1 (some centres undefined) | > 100 µM | > 100 µM | > 100 µM | – | > 100 | > 100 µM | – | > 100 µM | – | > 100 µM | – | > 100 | – | > 100 µM | – | – | – | – | – | – |
| Nc1nncc2c1c(Br)cn2C1OC(CO)C(O)C1O (centres undefined) | > 100 µM | > 100 µM | > 100 µM | – | > 100 | > 100 µM | – | > 100 µM | – | > 100 µM | – | > 100 | – | > 60.9 µM | – | – | – | – | – | – |
| CN(C)CCNC(=O)c1cccc2c1nc(-c1ccc(F)cc1)c1ccccc12 | 18.1 µM | 13.8 µM | 11.4 µM | – | 14.3 | 19.3 µM | – | 1.77 µM | – | 12 µM | – | 16.7 | – | 22.3 µM | – | – | – | – | – | – |
| CC(=O)C1CCN(c2ccccc2)C1 (centres undefined) | > 100 µM | > 100 µM | > 100 µM | – | – | > 100 µM | – | > 100 µM | – | > 100 µM | – | > 100 | – | > 100 µM | – | – | – | – | – | – |
| CC(C)(C)c1cc(CCC(=O)Nc2ccc(Cl)cc2)[nH]c(=S)n1 | > 100 µM | > 100 µM | > 100 µM | – | > 100 | > 100 µM | – | > 100 µM | – | > 100 µM | – | > 100 | – | > 100 µM | – | – | – | – | – | – |
| COC1C2C[C@@H](O)CCC2C(C(=O)OCCl)C[C@H]1O (some centres undefined) | > 100 µM | > 100 µM | > 100 µM | – | > 100 | > 100 µM | – | > 100 µM | – | > 100 µM | – | – | – | > 100 µM | – | – | – | – | – | – |
| COC1=C(N)C(=O)c2nc(-c3nc(C(=O)O)c(C)c(-c4ccc(OC)c(OC)c4O)c3N)ccc2C1=O | 0.00261 µM and 0.0217 µM and < 0.01 µM | 0.00428 µM and 0.0325 µM and 0.0216 µM | 0.00376 µM and 0.0263 µM and < 0.01 µM | – | – | – | – | 0.0805 µM and 0.0445 µM and < 0.0167 µM | – | – | 3.32 nM and 3.52 nM and 14.3 nM | – | – | – | – | – | 0.00135 µM and 0.00894 µM | 1.21 nM and 8.09 nM | 15.1 nM and 94 nM and 16.9 nM | – |
| NC(=O)c1ccc2c(c1)-c1nc-2nc2[n-]c(nc3nc(nc4[n-]c(n1)c1ccc(C(N)=O)cc41)-c1ccc(C(N)=O)cc1-3)c1ccc(C(N)=O)cc21.[Co+2] | > 50 µM | > 50 µM | > 50 µM | > 50 | > 50 | > 50 µM | > 50 | > 50 µM | > 50 | > 50 µM | > 50000 nM | > 50 | > 50 µM | > 50 µM | 19.5 µM | > 50000 nM | > 50 µM | – | – | > 50 |
| COc1cccc(/C=C/C(=O)c2ccc3cc(OC)ccc3c2)c1 | 19.2 µM | 49.4 µM | – | 8.13 | 17 | 22.9 µM | – | – | 25.2 | > 50 µM | 11100 nM | 25.5 | 48.3 µM | > 50 µM | 10.9 µM | – | 15.5 µM | – | – | 9.91 |
| NC1NC=NC2C1N=CN2C1OC(CO)C2[O][Sn][O]C21 (centres undefined) | > 100 µM | > 100 µM | > 100 µM | > 100 | > 100 | > 100 µM | > 100 | > 100 µM | > 100 | > 100 µM | > 100000 nM | > 100 | > 100 µM | > 100 µM | > 100 µM | > 100000 nM | > 100 µM | – | – | > 100 |
| CC(C)N(C(=O)C12C3C4C1C1C2C3C41C#N)C(C)C (centres undefined) | > 100 µM | > 100 µM | > 100 µM | – | > 100 | > 100 µM | – | > 100 µM | – | > 100 µM | – | > 100 | – | > 100 µM | – | – | – | – | – | – |
